These results are taken from PubChem BioAssay AID1259407 (Chemical Carcinogenesis Research Information System (CCRIS), 2018).

Molecules are shown by their SMILES. Activity calls are given as the source filed them. No rule for the calls is given here.

This series relates to CCRIS mutagenicity, Ames/micronucleus/aberration tests. Kind of series: CCRIS mutagenicity studies.
Where [1] appears, read: Test System: AMES SALMONELLA TYPHIMURIUM, Strain/Indicator: TA98, Metabolic Activation: NONE, Method: STANDARD PLATE.
[2] abbreviates: Test System: AMES SALMONELLA TYPHIMURIUM, Strain/Indicator: TA98, Metabolic Activation: RAT, LIVER, S-9, Method: STANDARD PLATE.
[3] abbreviates: Test System: AMES SALMONELLA TYPHIMURIUM, Strain/Indicator: TA100, Metabolic Activation: NONE, Method: STANDARD PLATE.
The mark [4] stands for this setting: Test System: AMES SALMONELLA TYPHIMURIUM, Strain/Indicator: TA98, Metabolic Activation: RAT, LIVER, S-9, AROCLOR 1254, Method: STANDARD PLATE.
The mark [5] stands for this setting: Test System: AMES SALMONELLA TYPHIMURIUM, Strain/Indicator: TA100, Metabolic Activation: RAT, LIVER, S-9, AROCLOR 1254, Method: STANDARD PLATE.
The mark [6] stands for this setting: Test System: AMES SALMONELLA TYPHIMURIUM, Strain/Indicator: TA1537, Metabolic Activation: NONE, Method: STANDARD PLATE.
The mark [7] stands for this setting: Test System: AMES SALMONELLA TYPHIMURIUM, Strain/Indicator: TA1537, Metabolic Activation: RAT, LIVER, S-9, AROCLOR 1254, Method: STANDARD PLATE.
The mark [8] stands for this setting: Test System: AMES SALMONELLA TYPHIMURIUM, Strain/Indicator: TA102, Metabolic Activation: NONE, Method: STANDARD PLATE.
Where [9] appears, read: Test System: AMES SALMONELLA TYPHIMURIUM, Strain/Indicator: TA98, Metabolic Activation: HAMSTER, LIVER, S-9, AROCLOR 1254 (10%), Method: PREINCUBATION
Where [10] appears, read: Test System: AMES SALMONELLA TYPHIMURIUM, Strain/Indicator: TA98, Metabolic Activation: NONE, Method: PREINCUBATION
The mark [11] stands for this setting: Test System: AMES SALMONELLA TYPHIMURIUM, Strain/Indicator: TA98, Metabolic Activation: RAT, LIVER, S-9, AROCLOR 1254 (10%), Method: PREINCUBATION
Setting [12] is: Test System: AMES SALMONELLA TYPHIMURIUM, Strain/Indicator: TA100, Metabolic Activation: HAMSTER, LIVER, S-9, AROCLOR 1254 (10%), Method: PREINCUBATION
The mark [13] stands for this setting: Test System: AMES SALMONELLA TYPHIMURIUM, Strain/Indicator: TA100, Metabolic Activation: NONE, Method: PREINCUBATION
The mark [14] stands for this setting: Test System: AMES SALMONELLA TYPHIMURIUM, Strain/Indicator: TA100, Metabolic Activation: RAT, LIVER, S-9, AROCLOR 1254 (10%), Method: PREINCUBATION
Where [15] appears, read: Test System: AMES SALMONELLA TYPHIMURIUM, Strain/Indicator: TA1535, Metabolic Activation: HAMSTER, LIVER, S-9, AROCLOR 1254 (10%), Method: PREINCUBATION
[16] abbreviates: Test System: AMES SALMONELLA TYPHIMURIUM, Strain/Indicator: TA1535, Metabolic Activation: NONE, Method: PREINCUBATION
Setting [17] is: Test System: AMES SALMONELLA TYPHIMURIUM, Strain/Indicator: TA1535, Metabolic Activation: RAT, LIVER, S-9, AROCLOR 1254 (10%), Method: PREINCUBATION
Setting [18] is: Test System: AMES SALMONELLA TYPHIMURIUM, Strain/Indicator: TA1537, Metabolic Activation: HAMSTER, LIVER, S-9, AROCLOR 1254 (10%), Method: PREINCUBATION
Where [19] appears, read: Test System: AMES SALMONELLA TYPHIMURIUM, Strain/Indicator: TA1537, Metabolic Activation: NONE, Method: PREINCUBATION
[20] abbreviates: Test System: AMES SALMONELLA TYPHIMURIUM, Strain/Indicator: TA1537, Metabolic Activation: RAT, LIVER, S-9, AROCLOR 1254 (10%), Method: PREINCUBATION

As to `Cc1ccc(N=Nc2c(O)ccc3ccccc23)cc1`, the mutagenic call under setting [1] was “inactive; negative”; the mutagenic call under setting [2] is “inactive; negative”; the mutagenic call under setting [3] was “inactive; negative”; the mutagenic call (Test System: AMES SALMONELLA TYPHIMURIUM, Strain/Indicator: TA100, Metabolic Activation: RAT, LIVER, S-9,, Method: STANDARD PLATE) is “inactive; negative”.
With `O=C(n1ccnc1)n1ccnc1`, the mutagenic call under setting [1] is “inactive; negative”; the mutagenic call under setting [4] is “inactive; negative”; the mutagenic call under setting [3] is “inactive; negative”; the mutagenic call under setting [5] is “inactive; negative”; the mutagenic call (Test System: AMES SALMONELLA TYPHIMURIUM, Strain/Indicator: TA1535, Metabolic Activation: NONE, Method: STANDARD PLATE) was “inactive; negative”; the mutagenic call (Test System: AMES SALMONELLA TYPHIMURIUM, Strain/Indicator: TA1535, Metabolic Activation: RAT, LIVER, S-9, AROCLOR 1254, Method: STANDARD PLATE) is “inactive; negative”. Moreover, the mutagenic call reads like this: under setting [6], “inactive; negative”; under setting [7], “inactive; negative”.
With `c1cnc2c(c1)-c1ncsc1CC2`, the mutagenic call (Test System: AMES SALMONELLA TYPHIMURIUM, Strain/Indicator: TA1538, Metabolic Activation: RAT, LIVER, S-9, AROCLOR 1254, Method: STANDARD PLATE) was “inactive; negative”.
Turning to `Nc1c(O)cc(Cc2cc(Cl)c(N)c(OS(=O)(=O)O)c2)cc1Cl`, the mutagenic call (Test System: AMES SALMONELLA TYPHIMURIUM, Strain/Indicator: TA1538, Metabolic Activation: NONE, Method: PREINCUBATION) is “inactive; negative” and the mutagenic call (Test System: AMES SALMONELLA TYPHIMURIUM, Strain/Indicator: TA1538, Metabolic Activation: NONE, Method: STANDARD PLATE) was “inactive; negative”.
`CC/C=C\C=C\CCCCCCOC(C)=O`: the mutagenic call by setting is: under setting [1], “inactive; negative”; under setting [2], “inactive; negative”; under setting [3], “inactive; negative”; (Test System: AMES SALMONELLA TYPHIMURIUM, Strain/Indicator: TA100, Metabolic Activation: RAT, LIVER, S-9, Method: STANDARD PLATE) “inactive; negative”; under setting [8], “inactive; negative”; (Test System: AMES SALMONELLA TYPHIMURIUM, Strain/Indicator: TA102, Metabolic Activation: RAT, LIVER, S-9, Method: STANDARD PLATE) “inactive; negative”.
In the case of `CCCCCCCC/C=C/CCCCCCCC(=O)OCCOCC(OCCO)C1OCC(OCCO)C1OCCO` (stereo unspecified), the mutagenic call under setting [9] was “inactive; negative”; the mutagenic call under setting [10] is “inactive; negative”; the mutagenic call under setting [11] is “inactive; negative”; the mutagenic call under setting [12] is “inactive; negative”; the mutagenic call under setting [13] is “inactive; negative”; the mutagenic call under setting [14] was “inactive; negative”. The mutagenic call is “inactive; negative” under setting [15]; “inactive; negative” under setting [16]; “inactive; negative” under setting [17]; “inactive; negative” under setting [18]; “inactive; negative” under setting [19]; “inactive; negative” under setting [20].
With `NC(Cc1ccc(F)cc1)C(=O)O` (stereo unspecified), the mutagenic call is, setting by setting: under setting [9], “inactive; negative”; under setting [10], “inactive; negative”; under setting [11], “inactive; negative”; under setting [12], “inactive; negative”; under setting [13], “inactive; negative”; under setting [14], “inactive; negative”. In addition, the mutagenic call is “inactive; negative” under setting [15]; “inactive; negative” under setting [16]; “inactive; negative” under setting [17]; “inactive; negative” under setting [18]; “inactive; negative” under setting [19]; “inactive; negative” under setting [20].
For `C[C@H](Br)C(=O)NCc1ccccc1`, the mutagenic call under setting [3] was “active; positive”.
As for `CNC(=O)c1cccc2c(Nc3ccc(NS(C)(=O)=O)cc3OC)c3cccc(C)c3nc12`, the mutagenic call under setting [1] was “inactive; negative”; the mutagenic call under setting [4] was “inactive; negative”; the mutagenic call under setting [3] is “inactive; negative”; the mutagenic call under setting [5] was “inactive; negative”; the mutagenic call under setting [8] is “active; positive”; the mutagenic call (Test System: AMES SALMONELLA TYPHIMURIUM, Strain/Indicator: TA102, Metabolic Activation: RAT, LIVER, S-9, AROCLOR 1254, Method: STANDARD PLATE) is “active; positive”. The mutagenic call under setting [6] is “active; positive”; the mutagenic call under setting [7] was “active; positive”; the mutagenic call (Test System: CHINESE HAMSTER V-79, Strain/Indicator: V-79/6-THIOGUANINE, Metabolic Activation: NONE, Method: STANDARD PLATE) is “active; positive”; the mutagenic call (Test System: CHINESE HAMSTER V-79, Strain/Indicator: V-79/OUABAIN, Metabolic Activation: NONE, Method: STANDARD PLATE) was “inactive; negative”.
